Measured values published in patent publication US20240140970A1, “A […], AND PREPARATION METHOD AND USE THEREOF” (ASCENTAWITS PHARMACEUTICALS, LTD., priority 2021, published 2024).
Where “and” joins values, the source holds several entries; their conditions need not be identical. Equal entries are not always repeated.

Assay: Freeze/thaw stability of AST-2660 in human plasma (LC-MS/MS)
Assay type: in vitro ADME
Protocol: The detection method established in example 4 was used to detect the content of AST-2660 in the human plasma to be tested.
Matrix: the mixed normal human plasma containing anticoagulant (K2 EDTA) • a: the internal standard working solution: AST-2660-D8 was taken, added with methanol, and diluted to prepare a solution containing about 100 ng per 1 ml. • b: the solution to be tested (no internal standard compound was added to the solution to be tested at this time): it was obtained by taking a blood sample to be tested. • c: the standard working solution (no internal standard compound was added to the standard working solution at this time): an appropriate amount of AST-2660 was taken and accurately weighed, dissolved with methanol, and diluted to prepare a solution containing about 1.0 mg per 1 ml, which was used as the standard working stock solution. An appropriate amount of the standard working stock solution was taken, added with the matrix and diluted to prepare standard working solutions with different concentrations containing about 200 ng, 160 ng, 100 ng, 50 ng, 10 ng, 2.0 ng, 1.0 ng and 0.5 ng per 1 ml, respectively. (The solution was stored at −70° C.) • d: the quality control sample solution: an appropriate amount of AST-2660 was taken and accurately weighed, dissolved with methanol, and diluted to prepare a solution containing about 10 μg per 1 ml, which was used as the quality control working stock solution. An appropriate amount of the quality control working stock solution was taken, added with matrix to prepare quality control working solutions with different concentrations containing about 150 ng, 60 ng, 15 ng, 1.5 ng and 0.5 ng per 1 ml. (The solution was stored at −70° C.)
The solution to be tested, the standard working solution and the quality control sample solution were thawed at room temperature and mixed uniformly. 100 μl of the above solution was respectively taken, added with 20 μl of the internal standard and 500 μl of methanol, and vortexed for 3 minutes to mix uniformly, and then centrifuged for 10 minutes at 2143 rcf. 450 μl of the supernatant was taken and dried, and 150 μl of methanol was added for redissolution, and sonicated. Then the plates were centrifuged for 3 minutes at 4° C. It was obtained by taking […] of supernatant.
Liquid phase conditions: A SHARC 1, 3 μm, 2.1*50 mm or chromatograph column with equivalent performance was used; the mobile phase was a methanol solution comprising low content of ammonium acetate; the mobile phase B was acetonitrile; the gradient elution was performed according to the following table, column temperature: 20° C.; injection volume: 5 μl.
Mass spectrometric conditions: electrospray ion source with negative ion scanning mode; spray potential: −4500 V; ion source temperature: 500° C.; collision energy (CE): −22 eV; declustering potential (DP): −55V; entrance potential (EP): −10V; collision chamber exit potential (CXP): −16V; dwell time: 100 ms; high purity nitrogen was used for all gases; AST-2660 ions pairs: m/z 147.0→m/z 62.9; the internal standard AST-2660-D8 ion pairs: m/z 155.0→m/z 62.9.
The AST-2660 standard working solution, blank sample, zero concentration sample, sample solution to be tested and quality control sample solution with different concentrations after extraction were respectively taken and injected into LC-MS/MS for detection.
Calculation results: the relationship function y=f (x) of the ratio of the peak area of the AST-2660 to that of the internal standard was obtained from AST-2660 standard working solutions with different concentrations. The ratio of the peak area of the AST-2660 to that of the internal standard was determined from the solution to be tested after extraction, and substituted into the relationship function y=f (x) to calculate the concentration of the metabolite II in the solution to be tested.

[1] = DilQC (10-fold dilution) nominal 1500 ng/ml, 5 freeze/thaw cycles at −20° C.
[2] = DilQC (10-fold dilution) nominal 1500 ng/ml, 5 freeze/thaw cycles at −70° C.
[3] = QC1 nominal 1.50 ng/ml, 5 freeze/thaw cycles at −20° C.
[4] = QC1 nominal 1.50 ng/ml, 5 freeze/thaw cycles at −70° C.
[5] = QC4 nominal 150 ng/ml, 5 freeze/thaw cycles at −20° C.
[6] = QC4 nominal 150 ng/ml, 5 freeze/thaw cycles at −70° C.

O=P([O-])(N1CC1)N1CC1.[Na+] [AST-2660]
AST-2660 concentration, Mean value [1]: 1288 ng/mL
AST-2660 concentration, single replicates [1]: 1310 ng/ml (2×) and 1250 ng/ml and 1280 ng/ml
RE (%) vs nominal [1]: −14.2%
AST-2660 concentration, Mean value [2]: 1540 ng/mL
AST-2660 concentration, single replicates [2]: 1650 ng/ml and 1500 ng/ml (2×) and 1510 ng/ml
RE (%) vs nominal [2]: 2.7%
AST-2660 concentration, Mean value [3]: 1.13 ng/mL
AST-2660 concentration, single replicates [3]: 1.13 ng/mL and 1.18 ng/mL and 1.14 ng/mL and 1.06 ng/mL
RE (%) vs nominal [3]: −24.8%
AST-2660 concentration, Mean value [4]: 1.60 ng/mL
AST-2660 concentration, single replicates [4]: 1.69 ng/mL and 1.72 ng/mL and 1.47 ng/mL and 1.51 ng/mL
RE (%) vs nominal [4]: 6.5%
AST-2660 concentration, Mean value [5]: 140 ng/mL
AST-2660 concentration, single replicates [5]: 136 ng/mL and 138 ng/mL and 152 ng/mL and 132 ng/mL
RE (%) vs nominal [5]: −7.0%
AST-2660 concentration, Mean value [6]: 149 ng/mL
AST-2660 concentration, single replicates [6]: 145 ng/ml and 148 ng/ml (2×) and 154 ng/ml
RE (%) vs nominal [6]: −0.8%
change of AST-2660 content (in words) (freeze-thaw process from −20° C. to room temperature): reduced significantly
change of AST-2660 content (in words) (freeze-thaw process from −70° C. to room temperature): almost no reduction
